Laboratory results published in patent publication US20060189576A1, “Substituted vitamin d analogues and their therapeutic uses” (priority 2003, published 2006).

What was measured:
[1] = test system: MCF-7 cells; test: MCF-7 cell proliferation ([3H]thymidine incorporation); type: cell-based; details: for antiproliferative effect (in words): MCF-7 cells; for IN VITRO STUDIES MCF-7: antiproliferative action, percentage activity vs 1α,25(OH)2D3 (=100%); for Antiproliferative activity on MCF-7 cells: percentage activity (at 50% of the dose response) vs 1α,25(OH)2D3 (=100%)
Method: To evaluate the effect of on cell proliferation, malignant MCF-7 cells were cultured in DMEM/nut. mix. […] Cultures were maintained at 37° C. in a humidified atmosphere of 5% CO2 in air. MCF-7 cells were seeded at 5×10^3 cells/well in the above described medium in 96-well microtiter plates in a final volume of 0.2 ml per well. Triplicate cultures were performed. […] Then, 1 μCi [^3H]thymidine was added to each well and cells were harvested after 4 h incubation with a Packard harvester and measured by the Packard Topcount System (Packard, Meriden, USA).

[2] = molecular target: T1, hDBP (Homo sapiens, UniProt P02774); test: Affinity for human DBP: competition with [3H]1α,25(OH)2D3; type: binding; details: percentage activity (at 50% of the dose response) in comparison with 1α,25(OH)2D3 (=100%)
T1 sequence (P02774 17-474): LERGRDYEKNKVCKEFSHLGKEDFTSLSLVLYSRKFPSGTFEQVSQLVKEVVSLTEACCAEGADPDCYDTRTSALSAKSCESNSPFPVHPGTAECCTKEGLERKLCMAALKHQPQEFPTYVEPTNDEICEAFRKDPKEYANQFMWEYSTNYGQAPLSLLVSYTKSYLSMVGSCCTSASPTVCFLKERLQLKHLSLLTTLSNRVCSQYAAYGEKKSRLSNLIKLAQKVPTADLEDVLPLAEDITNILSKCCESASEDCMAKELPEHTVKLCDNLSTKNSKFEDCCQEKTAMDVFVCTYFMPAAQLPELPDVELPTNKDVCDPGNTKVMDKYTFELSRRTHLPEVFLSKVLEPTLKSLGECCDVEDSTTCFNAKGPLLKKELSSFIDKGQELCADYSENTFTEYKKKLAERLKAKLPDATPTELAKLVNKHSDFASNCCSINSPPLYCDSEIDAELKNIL
Method: Phase separation was then obtained by the addition of 0.5 ml of cold dextran-coated charcoal.

[3] = test system: HL-60 cells; test: HL-60 cell differentiation (NBT reduction assay); type: cell-based; details: for prodifferentiating effect (in words): HL 60 cells; for IN VITRO STUDIES HL 60: potency to differentiate HL 60 cells, percentage activity vs 1α,25(OH)2D3 (=100%)
Method: To evaluate the effect on cell differentiation HL-60 cells were seeded at 4×10^4 cells/ml in 25 cm^2 Falcon tissue chambers using RPMI 1640 medium supplemented with 20% FCS and gentamycin (50 μg/ml) in a final volume of 5 ml. Cultures were maintained at 37° C. in a humidified atmosphere of 5% CO2 in air. […] After 4 days of culture, the dishes were shaken to lose adherent cells. Cells were washed twice in RPMI, counted and assayed for differentiation markers (NBT reduction assay). Superoxide production was measured as NBT reducing activity as described previously (Ostrem V. K et al. Proc Natl Acad Sci USA 84: 2610-2614, 1987). HL-60 cells at 1×10^6/ml were mixed with an equal volume of freshly prepared solution of phorbol 12-myristate 13-acetate (200 ng/ml) and […] and incubated for 30 min at 37° C. The percentage of cells containing black formazan deposits was determined using a hemacytometer.

[4] = molecular target: T2, vitamin D receptor (Sus scrofa, UniProt A3RGC1); details: percentage activity (at 50% of the dose response) in comparison with 1α,25(OH)2D3 (=100%)
T2 sequence (A3RGC1 1-427): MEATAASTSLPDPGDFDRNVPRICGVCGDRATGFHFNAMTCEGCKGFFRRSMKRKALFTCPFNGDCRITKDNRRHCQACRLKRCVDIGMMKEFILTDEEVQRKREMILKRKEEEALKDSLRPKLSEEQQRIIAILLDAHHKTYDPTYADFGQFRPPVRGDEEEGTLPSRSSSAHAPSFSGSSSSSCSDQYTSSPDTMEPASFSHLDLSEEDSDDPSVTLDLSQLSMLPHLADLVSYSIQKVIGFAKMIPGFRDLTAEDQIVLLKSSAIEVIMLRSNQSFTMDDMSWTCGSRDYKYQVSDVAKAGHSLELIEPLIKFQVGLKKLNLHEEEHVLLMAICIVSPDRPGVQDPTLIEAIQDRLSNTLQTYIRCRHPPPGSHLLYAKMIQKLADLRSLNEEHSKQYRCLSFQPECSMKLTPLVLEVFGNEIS
Method: The incubation was performed at 4° C. for 20 h and phase separation was obtained by addition of dextran-coated charcoal.

[5] = for IN VIVO STUDIES Osteocalcin serum: mice, daily intraperitoneal injection 7 consecutive days, percentage activity vs 1α,25(OH)2D3 (=100%); for IN VIVO STUDIES Calcium serum / IN VIVO STUDIES Calcium urine / Serum calcium in mice: ip
Method: Eight weeks old, male NMRI mice were obtained from the Proefdierencentrum of Leuven (Belgium) and fed a vitamin D-replete diet (0.2% calcium, 1% phosphate, 2000 U vitamin D/kg; Hope Farms, Woerden, The Netherlands). […] The control group was injected with vehicle (arachis oil). The average weight of each group of 6 mice was determined at the beginning and at the end of the experiment. The following parameters were evaluated: serum calcium, serum osteocalcin, femur calcium and urinary calcium. Serum and urinary calcium were measured by a microcolorimetric assay (Sigma, St. Louis, Mo.). Femurs were removed and femur calcium content was measured in HCl-dissolved bone ash (obtained by heating for 24 h in an oven at 100° C.), using the same technique as for serum and urinary calcium.

SMILES	antiproliferative effect (in words) [1]	IN VITRO STUDIES MCF-7 [1]	AFFINITY STUDIES DBP [2]	prodifferentiating effect (in words) [3]	IN VITRO STUDIES HL 60 [3]	AFFINITY STUDIES VDR [4]	IN VIVO STUDIES Osteocalcin serum [5]	further reduction of calcemic activity by the 2β counterpart ([5]; mouse, in vivo)	IN VIVO STUDIES Calcium serum ([5]; mouse, in vivo)	IN VIVO STUDIES Calcium urine ([5]; mouse, in vivo)	times more potent than 1α,25(OH)2D3 in vitro ([1]; range over HL 60 differentiation and MCF-7 proliferation, test not specified)	Antiproliferative activity on MCF-7 cells [1]	Serum calcium in mice ([5]; mouse, in vivo)	enhancement of antiproliferative effects on MCF-7 cells on introduction of the 23-yne side chain ([1]; compared with 2α-ethyl-19-nor-1α,25(OH)2D3 (110))
CCC1C(O)CC(=CC=C2CCCC3(C)C2CCC3C(C)CCCC(C)(C)O)CC1O (stereo not drawn) [Compound 109, 2β-ethyl-19-nor-1α,25(OH)2D3]	less active than 1α,25(OH)2D3	90%	9%	less active than 1α,25(OH)2D3	10%	40%	0.8%	16 fold	0.4%	0.8%				
CCC1C(O)CC(=CC=C2CCCC3(C)C2CCC3C(C)CCCC(C)(C)O)CC1O (stereo not drawn) [Compound 110, 2α-ethyl-19-nor-1α,25(OH)2D3]	very potent	650%	20%	very potent	200%	90%	13%		13%	13%	2 to 6 times			
CCC1C(O)CC(=CC=C2CCCC3(C)C2CCC3C(C)CC#CC(C)(C)O)CC1O (stereo not drawn) [Compound 111, 2β-ethyl-19-nor-23-yne-1α,25(OH)2D3]		700%	0.5%		80%	9%	0.8%		0.4%	0.8%		700%	0.4%	
CCC1C(O)CC(=CC=C2CCCC3(C)C2CCC3C(C)CC#CC(C)(C)O)CC1O (stereo not drawn) [Compound 112, 2α-ethyl-19-nor-23-yne-1α,25(OH)2D3]	very potent	2000%	0.9%	very potent	300%	55%	3%		1.6%	0.8%				3 fold
CCC1C(O)CC(=CC=C2CCCC3(C)C2CCC3C(C)CCCC(C)(C)O)CC1O (stereo not shown) [Compound 113]		75%	3%		10%	8%	0.4%		0.4%	0.4%				
CCC1C(O)CC(=CC=C2CCCC3(C)C2CCC3C(C)CCCC(C)(C)O)CC1O (stereo not drawn) [Compound 114, 2α-ethyl-14-epi-19-nor-1α,25(OH)2D3]		150%	40%		80%	30%	1%		1%	1%				
CCC1C(O)CC(=CC=C2CCCC3(C)C2CCC3C(C)CC#CC(C)(C)O)CC1O (stereo not drawn) [Compound 115, 2β-ethyl-14-epi-19-nor-23-yne-1α,25(OH)2D3]		600%	0.2%		80%	9%	0.1%		<<0.1%	<0.1%		600%	<<0.1%	
CCC1C(O)CC(=CC=C2CCCC3(C)C2CCC3C(C)CC#CC(C)(C)O)CC1O (stereo not drawn) [Compound 116, 2α-ethyl-14-epi-19-nor-23-yne-1α,25(OH)2D3]	very potent	3000%	0.1%	very potent	550%	65%	0.2%		0.2%			3000%	0.2%	
CC(CC#CC(C)(C)O)C1CCC2C(=CC=C3CC(O)C(C)C(O)C3)CCCC21C (stereo not drawn) [Compound 117, 3,14-bis-epi-2α-methyl-19-nor-23-yn-1α,25-dihydroxyvitamin-D3]	very potent		0%	very potent	400%	40%			<0.25%	<0.25%				
